Experimental data reported in ChEMBL document CHEMBL4152373 (Bioorg Med Chem, 2018).

Assays:
Rattus norvegicus [1] = assay: Unbound clearance in Sprague-Dawley rat at 1 mg/kg, iv administered as single dose by LC-MS/MS analysis; assay type: ADME, organism-based; settings: in vivo
[2] = target: T1, Glucocorticoid receptor (Homo sapiens) (UniProt P04150); settings: 10 uM
T1 sequence (whole entry): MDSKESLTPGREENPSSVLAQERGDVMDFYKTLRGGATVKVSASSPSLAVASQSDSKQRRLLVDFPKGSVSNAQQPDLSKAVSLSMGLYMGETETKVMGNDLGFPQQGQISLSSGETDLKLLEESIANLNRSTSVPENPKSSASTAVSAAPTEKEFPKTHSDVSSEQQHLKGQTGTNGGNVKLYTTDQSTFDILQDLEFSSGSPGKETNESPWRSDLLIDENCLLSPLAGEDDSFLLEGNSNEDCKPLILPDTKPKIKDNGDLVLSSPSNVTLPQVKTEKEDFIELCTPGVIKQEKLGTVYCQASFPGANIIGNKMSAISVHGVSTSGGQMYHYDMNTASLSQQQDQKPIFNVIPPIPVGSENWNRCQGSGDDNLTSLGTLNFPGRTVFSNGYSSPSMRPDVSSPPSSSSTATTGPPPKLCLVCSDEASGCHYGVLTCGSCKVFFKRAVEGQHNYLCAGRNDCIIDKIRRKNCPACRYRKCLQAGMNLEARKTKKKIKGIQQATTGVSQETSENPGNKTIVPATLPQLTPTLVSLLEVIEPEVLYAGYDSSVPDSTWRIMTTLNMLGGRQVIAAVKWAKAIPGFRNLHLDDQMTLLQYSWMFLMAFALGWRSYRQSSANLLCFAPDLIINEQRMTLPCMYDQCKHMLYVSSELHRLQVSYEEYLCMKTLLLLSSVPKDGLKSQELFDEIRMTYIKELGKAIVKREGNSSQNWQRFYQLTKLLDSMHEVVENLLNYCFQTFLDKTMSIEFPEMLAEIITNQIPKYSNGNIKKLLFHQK
Description: Antagonist activity at GCR (unknown origin) at 10 uM by cAMP accumulation based assay relative to control

[3] = Fraction unbound in rat plasma at 5 uM after 4 hrs by equilibrium dialysis method
[4] = Octanol-PBS buffer partition coefficient, log D of the compound at pH 7.4 by HPLC method
[5] = Oral bioavailability in Sprague-Dawley rat at 3 mg/kg administered via gavage as single dose by LC-MS/MS analysis; assay type: ADME, organism-based; settings: in vivo
[6] = target: Hydroxycarboxylic acid receptor 2 (Homo sapiens) (UniProt Q8TDS4); assay: Antagonist activity at GPR109a (unknown origin) at 10 uM by aequorin based assay relative to control; assay type: functional
Hydroxycarboxylic acid receptor 2 (Homo sapiens), sequence (Q8TDS4 whole entry): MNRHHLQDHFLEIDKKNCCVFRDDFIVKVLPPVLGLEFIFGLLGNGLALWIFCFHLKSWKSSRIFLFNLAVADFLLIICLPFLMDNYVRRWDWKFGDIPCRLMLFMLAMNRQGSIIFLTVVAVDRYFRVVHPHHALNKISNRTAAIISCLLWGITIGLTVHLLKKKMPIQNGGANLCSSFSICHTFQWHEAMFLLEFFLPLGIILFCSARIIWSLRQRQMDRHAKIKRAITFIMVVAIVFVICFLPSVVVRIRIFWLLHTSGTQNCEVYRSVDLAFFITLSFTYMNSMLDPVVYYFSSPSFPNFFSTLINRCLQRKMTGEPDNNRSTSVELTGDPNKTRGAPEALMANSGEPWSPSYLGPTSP

Rattus norvegicus [7] = assay: Dose normalized unbound AUC in Sprague-Dawley rat at 3 mg/kg, po administered via gavage as single dose by LC-MS/MS analysis; assay type: ADME, organism-based; settings: in vivo
[8] = target: T2, Gastric inhibitory polypeptide receptor (Homo sapiens) (UniProt P48546); settings: 10 uM
T2 sequence (whole entry): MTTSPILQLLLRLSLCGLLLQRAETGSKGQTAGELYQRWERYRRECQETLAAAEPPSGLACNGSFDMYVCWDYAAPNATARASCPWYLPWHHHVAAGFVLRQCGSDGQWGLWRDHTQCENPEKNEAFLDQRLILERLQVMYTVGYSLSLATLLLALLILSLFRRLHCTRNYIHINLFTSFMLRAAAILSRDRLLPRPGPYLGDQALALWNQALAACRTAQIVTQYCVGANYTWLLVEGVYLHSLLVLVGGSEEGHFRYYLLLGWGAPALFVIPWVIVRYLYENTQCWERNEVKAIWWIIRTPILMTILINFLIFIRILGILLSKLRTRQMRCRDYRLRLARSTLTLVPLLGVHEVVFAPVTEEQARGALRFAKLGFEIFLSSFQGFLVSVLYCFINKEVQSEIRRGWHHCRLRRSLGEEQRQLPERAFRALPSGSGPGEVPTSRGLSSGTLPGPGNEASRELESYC
Description: Antagonist activity at GIPR (unknown origin) at 10 uM by cAMP accumulation based assay relative to control

[9] = target: Hydroxycarboxylic acid receptor 2 (Homo sapiens) (UniProt Q8TDS4); assay: Agonist activity at GPR109a (unknown origin) at 10 uM by aequorin based assay relative to control; assay type: functional

Structure (SMILES): COc1ccc(-c2ccccc2-c2csc(N(C(=O)[C@@H](CC(=O)O)CC3CCCC3)C3CC3)n2)cn1
- CL free (Rattus norvegicus [1]): 157 L/h/kg
- inhibition [2]: < 10%
- fraction unbound at 4 h, 5 µM [3]: 0.0006
- logD [4]: 2.6
- bioavailability [5]: 47%
- inhibition [6]: < 10%
- fAUC/dose (Rattus norvegicus [7]): 0.29 µM·min
- inhibition [8]: < 10%
- Activity [9]: < 10%
